# Measurements reported in ChEMBL document CHEMBL5441456, “ASAP - SARS-CoV-2 nsp3 macrodomain dose response” (2024).
# pIC50: −log10 of the molar value. “And” between values parts separate entries of the source, which are not always exact repeats. Equal values may be shown once.
# Biological target: Replicase polyprotein 1ab (Severe acute respiratory syndrome coronavirus 2, UniProt P0DTD1)
# Experiment: Functional biochemical assay to identify treatments for viral infectious disease that targets SARS-COV-2 nsp3 macrodomain, whereby the mechanism of action displaces an ADP-Ribose modified peptide from the binding site. Utilizing a time-resolved fluorescence method to measure binding by reading the emitted fluorescence intensity in two wavelengths.
row,Structure (SMILES),pIC50
1,COc1ccc([C@@H](CC(=O)O)NC(=O)c2ncnc3[nH]ccc23)cc1,5.68 and 5.67 and 5.43
2,CC(C)c1c[nH]nc1NC(=O)c1ccc(NC(=O)Nc2ccccc2)cc1,< 4.00
3,O=C(NCc1ccccc1F)c1ncnc2[nH]ccc12,< 4.00
4,CC(C)[C@H](Nc1ncnc2[nH]c(-c3cnn(C)c3)cc12)c1ccc2c(c1)S(=O)(=O)CCC2,5.04
5,CC(C)[C@@H](Nc1ncnc2[nH]c(-c3ccc(S(N)(=O)=O)cc3)cc12)c1ccc2c(c1)OCCO2,5.79 and 5.74
6,O=C(O)C[C@@H](NC(=O)c1nccc2[nH]ncc12)c1ccc(Br)cc1,4.61 and 4.62
7,CC(C)[C@H](Nc1ncnc2nccnc12)c1ccc2c(c1)S(=O)(=O)CCC2,< 4.00
8,O=C(NCc1cc2n(n1)CCCC2)c1cc2cncnc2[nH]1,< 3.91
9,CC(C)[C@@H](Nc1ncnc2[nH]cc(C#N)c12)c1ccc2c(c1)OCCO2,5.36 and 5.42
10,CC(C)[C@H](Nc1cc(NCC(F)(F)F)ncn1)c1ccc2c(c1)S(=O)(=O)CCC2,< 4.00
11,CC(C)[C@@H](Nc1ncnc2[nH]c(-c3cnc(N)nc3)cc12)c1ccc2c(c1)S(=O)(=O)CCC2,7.07 and 7.21 and 6.97
12,CC(C)[C@@H](Nc1nccc2[nH]c(=O)[nH]c12)c1ccc2c(c1)S(=O)(=O)CCC2,< 4.00
13,CCNC(=O)c1cc2c(N[C@@H](c3cccnc3OCC(F)(F)F)C(C)C)ncnc2[nH]1,< 4.00
14,C[C@H]1C[C@H]1c1nnc(Nc2ccc([C@@H](CC(=O)O)NC(=O)c3c[nH]c4ncncc34)cc2)o1,4.07 and 4.01
15,O=C(O)c1cn(CCNC(=O)c2ncnc3[nH]ccc23)cn1,< 4.00
16,Cc1[nH]c2ncnc(NC(=O)c3ccnnc3)c2c1C,< 4.00
17,O=C(O)[C@@H]1CC2(CCCCC2)CN1c1ncnc2[nH]ccc12,< 4.00
18,CC(C)[C@@H](Nc1ncncc1N1CCOCC1)c1ccc2c(c1)S(=O)(=O)CCC2,< 4.00
19,CC(C)[C@H](Nc1ncnc2[nH]c(-c3cnn(C)c3C#N)cc12)c1ccc2c(c1)OCCO2,6.62 and 6.05
20,Cc1[nH]c2ncnc(NC(=O)c3cccnn3)c2c1C,< 4.00
21,O=C(c1ccccc1)N1CCC(c2ccn3ncc(C(=O)N4CCc5nc[nH]c5C4)c3c2)CC1,< 4.00
22,CNc1nccc(N[C@@H](c2ccc3c(c2)S(=O)(=O)CCC3)C(C)C)n1,< 4.00
23,CC(C)[C@@H](Nc1ncnc2[nH]ccc12)c1ccc2c(c1)S(=O)(=O)NCC2,5.90 and 6.01
24,CC(C)[C@@H](Nc1ncnc2[nH]c(-c3cn(C)nc3C#N)cc12)c1ccc2c(c1)OCCO2,6.06 and 6.07

row,Structure (SMILES),pIC50
1,c1ccc2c(c1)OCC[C@@H]2Nc1ncnc2[nH]ccc12,< 4.00
2,Cn1ncc(-c2cc3c(N[C@@H](c4ccc5c(c4)OCCO5)C(C)(C)C)ncnc3[nH]2)c1C#N,6.51 and 6.48
3,CC(C)[C@@H](Nc1ncnc2[nH]c(C(=O)NC3CN(C)C3)cc12)c1ccc2c(c1)OCCO2,5.84 and 5.49
4,CC(C)[C@@H](Nc1cc(C(N)=O)ccn1)c1ccc2c(c1)S(=O)(=O)CCC2,< 4.00
5,Cc1ncc(-c2cc3c(N[C@@H](c4ccc5c(c4)OCCO5)C(C)C)ncnc3[nH]2)cn1,6.32 and 6.23
6,O=C(O)[C@@H](Nc1ncnc2[nH]ccc12)C1CC1,4.14
7,COc1ccc([C@H](CC(=O)O)NC(=O)c2ccc(NC(=O)NC3CC3)cc2)cc1,4.27 and 4.29 and 4.42
8,O=C(Nc1cccc2c(C(=O)N[C@H]3c4ccccc4C[C@H]3C(=O)O)c[nH]c12)NC1CC1,5.11 and 5.18
9,CC(C)[C@@H](Nc1ncnc2[nH]ccc12)c1ccc2c(c1)CCCS2(=O)=O,5.52 and 5.58
10,COC(=O)c1coc(-c2cc3c(N[C@@H](c4ccc5c(c4)OCCO5)C(C)C)ncnc3[nH]2)c1,5.03 and 4.97 and 4.99
11,CC(C)[C@@H](Nc1ncnc2n[nH]cc12)c1cnn(C)c1,4.37
12,Cn1nc(C(=O)N2CCC(c3ccn4ncc(C(=O)N5CCCCC5)c4c3)CC2)cc1C(=O)O,4.18
13,O=C(O)C[C@@H](NC(=O)c1cncc2[nH]ccc12)c1ccc(Br)cc1,4.45 and 4.38
14,CC(C)[C@@H](Nc1ncnc2[nH]c(-c3cncc(C(=O)N(C)C)c3)cc12)c1ccc2c(c1)OCCO2,6.13 and 6.09
15,OC[C@@H](Nc1ncnc2[nH]c(I)cc12)c1ccccc1,< 3.91
16,COc1ccc(S(=O)(=O)Nc2cnc3[nH]ccc3c2)cc1C(N)=O,< 4.00
17,CC(=O)Nc1ccc([C@@H](CC(=O)O)NC(=O)c2ncnc3[nH]ccc23)cc1,4.84
18,NS(=O)(=O)C[C@@H](NC(=O)c1ncnc2[nH]ccc12)c1ccc(Br)cc1,< 4.00
19,CC(C)[C@H](Nc1nccc2[nH]ccc12)c1ccc2c(c1)S(=O)(=O)CCC2,< 4.00
20,CC(C)[C@@H](Nc1ncnc2[nH]c(-c3ccc4nccn4c3)cc12)c1ccc2c(c1)OCCO2,5.94 and 5.86
21,CC(C)[C@@H](Nc1ncnc2[nH]ccc12)c1ccc2c(c1)C(=O)NCC2,5.65 and 5.61
22,CCNC(=O)c1cc2c(N[C@@H](c3cc4c(cc3Cl)OCO4)C(C)C)ncnc2[nH]1,5.21 and 5.31
23,Cc1nn(C)nc1-c1cc2c(N[C@@H](c3ccc4c(c3)OCCO4)C(C)C)ncnc2[nH]1,4.56 and 4.47
24,N=C(N)C[C@@H](NC(=O)c1ncnc2[nH]ccc12)c1ccc(Br)cc1,< 4.00

row,Structure (SMILES),pIC50
1,Cc1cc(CNC(=O)c2cc3c(N[C@@H](c4ccc5c(c4)OCCO5)C(C)C)ncnc3[nH]2)[nH]n1,5.92
2,Cc1nc(N)c(Cl)c(N[C@H](c2ccc3c(c2)S(=O)(=O)CCC3)C(C)C)n1,< 4.00
3,CNS(=O)(=O)c1c[nH]c2ncnc(N[C@@H](c3ccc4c(c3)OCCO4)C(C)C)c12,5.59
4,COc1cn[nH]c1NC(=O)c1cc2c(N[C@@H](c3ccc4c(c3)OCCO4)C(C)C)ncnc2[nH]1,4.14
5,CCNC(=O)c1cc2c(N[C@@H](c3ccc4c(c3)S(=O)(=O)CCC4)C3CC3)ncnc2[nH]1,6.40 and 6.58
6,CC(C)[C@@H](Nc1ncnc2[nH]c(-c3ccnn3C3CC3)cc12)c1ccc2c(c1)OCCO2,5.97 and 5.91
7,O=C(O)[C@@H](CC1CCCCC1)Nc1ncnc2[nH]ccc12,4.13 and 4.15
8,CC(C)[C@@H](NCc1ccc(-n2cccn2)cc1)c1ccc2c(c1)OCCO2,< 4.00
9,Cn1c(C(=O)O)c(NC(=O)c2ccc(NC(=O)NC3CC3)cc2)c2ccccc21,< 4.00
10,CC(C)[C@@H](Nc1ncnc2[nH]ccc12)C(F)F,4.82
11,Cc1csc(NC(=O)CSC[C@@H](NC(=O)c2ncnc3[nH]ccc23)C(=O)O)n1,< 4.00
12,CC(C)[C@@H](NCc1ccc(-n2ccnc2)cc1)c1ccc2c(c1)OCCO2,< 4.00
13,CC(C)[C@@H](Nc1ncnc2[nH]c(-c3ccn(C)c(=O)c3)cc12)c1ccc2c(c1)S(=O)(=O)CCC2,7.13 and 7.20 and 6.95
14,Cc1nc(C(=O)N2CCC(c3ccn4ncc(C(=O)N5CCCCC5)c4c3)CC2)c(=O)[nH]c1C,< 4.00
15,CC(C)[C@@H](Nc1ncnc2[nH]c(C(=O)Nc3cn[nH]c3)cc12)c1ccc2c(c1)OCCO2,5.59
16,NC(=O)c1ccc(S(=O)(=O)Nc2cnc3[nH]ccc3c2)cc1,< 4.00
17,CC(C)[C@@H](NC(=O)c1ccnc2ccccc12)c1ccc2c(c1)OCCO2,< 4.00
18,OC[C@@]1(Cc2ccc(F)cc2)CCN(c2ncnc3[nH]ccc23)C1,< 4.00
19,CCNC(=O)c1cc2c(N[C@H](c3ccc4c(c3)OCCO4)C(C)C)ncnc2[nH]1,4.33
20,CCNC(=O)c1cc2c(N[C@@H](c3cnc(NC(C)=O)s3)C(C)C)ncnc2[nH]1,5.36 and 5.27 and 5.38
21,CC(C)[C@H](Nc1ncnc2[nH]cnc12)c1ccc2c(c1)S(=O)(=O)CCC2,6.13
22,CC(C)[C@@H](Nc1ncnc2[nH]c(C(=O)N[C@@H]3CCN(C)C3)cc12)c1ccc2c(c1)OCCO2,6.38 and 6.30
23,NC(=O)[C@@H](NC(=O)c1ncnc2[nH]ccc12)c1ccc(F)cc1,< 4.00
24,CC(C)[C@H](Nc1ncncc1-n1ccnn1)c1ccc2c(c1)S(=O)(=O)CCC2,< 4.00

row,Structure (SMILES),pIC50
1,CS(=O)(=O)NC1CCC(Nc2ccc([C@@H](CC(=O)O)NC(=O)c3ncnc4[nH]ccc34)cc2)CC1 (stereo partly specified),4.13 and 4.07
2,CNc1nccc(N[C@H](c2ccc3c(c2)S(=O)(=O)CCC3)C(C)C)n1,< 4.00
3,Cc1[nH]c2ncnc(NC(=O)c3cncnc3)c2c1C,< 4.00
4,CC(C)[C@@H](Nc1ncnc2[nH]ccc12)c1ccc2c(c1)N(C)CCO2,4.56 and 4.50
5,O=C(O)C[C@@H](NC(=O)c1ccnc2cn[nH]c12)c1ccc(Br)cc1,4.99 and 5.02
6,O=C(O)C[C@@H](NC(=O)c1ccc(NC(=O)NC2CC2)cc1)c1cccc(C(F)F)c1,4.12 and 4.14
7,Cc1cn[nH]c1-c1cc2c(N[C@@H](c3ccc4c(c3)OCCO4)C(C)C)ncnc2[nH]1,5.17 and 5.05 and 5.06
8,CC(C)[C@@H](Nc1ncnc2[nH]c(C(=O)N[C@H]3CCN(C)C3)cc12)c1ccc2c(c1)S(=O)(=O)CCC2,7.27 and 6.97
9,Cc1[nH]c2ncnc(NC(=O)c3ccncc3)c2c1C,< 4.00
10,CCn1ccc(-c2cc3c(N[C@@H](c4ccc5c(c4)OCCO5)C(C)C)ncnc3[nH]2)n1,5.88 and 5.82
11,Cn1cc([C@@H](NC(=O)c2c[nH]c3c(NC(=O)NC4CC4)cccc23)C2CCC2)cn1,< 4.00
12,CNC(=O)Cn1cc(-c2cc3c(N[C@H](c4ccc5c(c4)OCCO5)C(C)C)ncnc3[nH]2)cn1,6.67 and 6.65
13,O=C(Nc1cnc2[nH]ncc2c1)C1CCN(c2ccc3nncn3n2)CC1,< 3.91
14,CC(C)[C@@H](Nc1ncnc2[nH]c(-c3cccc4c3CN(C)C4=O)cc12)c1ccc2c(c1)OCCO2,5.67 and 5.60
15,O=C(Nc1cccc2c(C(=O)Nc3cc4c(cc3CO)OCCO4)c[nH]c12)NC1CC1,< 4.00
16,CC(C)[C@@H](Nc1ncnc2[nH]c(-c3cnn(CC(N)=O)c3)cc12)c1ccc2c(c1)OCCO2,6.42 and 6.44 and 6.61 and 6.59
17,Cc1ncc(CCNC(=O)c2csc3c(NC(=O)NC4CC4)ncnc23)s1,< 4.00
18,Cc1nnn(C)c1-c1cc2c(N[C@@H](c3ccc4c(c3)OCCO4)C(C)C)ncnc2[nH]1,4.99 and 5.06
19,CC(C)[C@@H](NC(=O)c1cnn(-c2ccccc2)n1)c1ccc2c(c1)OCCO2,< 4.00
20,Cc1occc1-c1cc2c(N[C@@H](c3ccc4c(c3)OCCO4)C(C)C)ncnc2[nH]1,5.07 and 5.05 and 5.02
21,Cc1[nH]nc2ncc(C(=O)N[C@@H](c3ccc4c(c3)OCCO4)C(C)C)cc12,< 4.00
22,CC(C)[C@H](Nc1ncnc2c1CCO2)c1ccc2c(c1)S(=O)(=O)CCC2,< 4.00
23,O=C(c1cccnc1S)N1CCC(c2ccn3ncc(C(=O)N4CCCCC4)c3c2)CC1,4.21
24,N#Cc1ccc(C(=O)Nc2ccc(C(=O)N[C@@H]3c4ccccc4C[C@@H]3C(=O)O)cc2)cc1,< 4.00
